Data published in patent US20240043928A1, “BIOMARKERS FOR MYELODYSPLASTIC SYNDROME (MDS) AND METHODS OF USING THE SAME” (Eisai R&D Management Co., Ltd., priority 2020, published 2024).
Read-outs that look alike come from different tables or passages of the source.

Legend:
[1] = Phase I study NCT02841540: plasma pharmacokinetics; format: in vivo, human; conditions: for Cmax / half-life / AUC(0-t) / Tmax: human, plasma; for Cmax / half-life / AUC(0-t): geometric mean (CV %); for AUC(0-t): read-out: AUC0-24; for Tmax: median
Procedure: Plasma samples for PK analyses were collected during Cycle 1 on Day 1 and Day 4 (pre-dose and 0.5, 1, 2, 4, 6, 8, 10, and 24 hours post-dose), and pre-dose and 4 hours post-dose on Cycle 1 on Day 15. PK analyses were conducted using Phoenix® VVinNonlin. For pharmacodynamic and biomarker analyses, peripheral blood samples were collected into PAXgene® Blood RNA Tubes (BD Biosciences, San Jose, California) at Cycle 1 Day 1 (pre-dose and 1, 2, 4, 10 and 24 hours post-dose) for all patients. RNA was extracted using Maxwell® simplyRNA Blood Kit (Promega, Madison, Wisconsin). Target engagement (i.e., splicing modulation) was measured by assessing relative expression of representative pre- and mature-mRNA or aberrant and canonical transcripts at post-dose time points comparing to pre-dose, using a customized Nanostring nCounter gene expression panel (NanoString Technologies, Seattle, Washington). For splicing mutation analysis, peripheral blood was collected into PAXgene® Blood DNA Tubes (BD Biosciences, San Jose, California). Baseline splicing mutations were identified using the Focus:Myeloid™ Next Generation Sequencing (NGS) panel determined centrally by Cancer Genetics Inc. (Rutherford, NJ). Biomarker analyses of pretreatment samples were conducted using one-way ANOVA and MedCalc® software. Receiver-Operating-Characteristics (ROC) curves were performed according to the methodology described by Hanley and McNeil (Radiology. 1982;143(1):29-36; see also Zweig and Campbell, Clin Chem. 1993;39(4):561-577).

[2] = test system: xenograft models of leukemia expressing mutant SF3B1; conditions: oral administration; cited from earlier work
[3] = test system: human acute myeloid leukemia (AML) cell lines, including mutant U2AF1, SRSF2, and SF3B1 cells; conditions: panel of human AML cell lines incl. mutant U2AF1, SRSF2, SF3B1 cells; cited from earlier work
[4] = test system: patients with myelodysplastic syndrome (MDS), chronic myelomonocytic leukemia (CMML), or acute myeloid leukemia (AML); test: Phase I study NCT02841540: clinical response and transfusion independence; format: in vivo, human
Procedure: Clinical responses were assessed using the 2006 International Working Group (IWG) response criteria for MDS (Cheson et al. Blood. 2006;108:419-425), the IWG 2003 criteria for AML, and the 2015 international consortium proposal of uniform response criteria for myelodysplastic/myeloproliferative neoplasms (MDS/MPN) and CMML (Savona et al. Blood. 2015;125(12):1857-1865). Peripheral blood sampling, bone marrow aspirates, bone marrow biopsies, marrow cytogenetics, and cellular composition by flow cytometry were performed at the time of screening, and after Cycles 1, 2, and 4. Beyond Cycle 4, bone marrow aspirates were performed as clinically indicated based on changes in peripheral blood count, or as needed to establish either complete response or disease progression. An independent central confirmation and interpretation was performed for disease assessments.

[5] = Non-human primate toxicity; format: in vivo
[6] = patient: CMML, IPSS Lower, starting dose 7 mg
[7] = patient: MDS (baseline Hb 9.1 g/dL), IPSS Lower, starting dose 5 mg
[8] = patient: MDS, IPSS Higher, starting dose 2 mg
[9] = patient: MDS, IPSS Higher, starting dose 7 mg
[10] = patient: MDS, IPSS Lower, donor one, starting dose 7 mg
[11] = patient: MDS, IPSS Lower, starting dose 2 mg (7 mg during last two RBC TI periods)
[12] = patient: MDS, IPSS Lower, starting dose 3.5 mg
[13] = patient: MDS/MPN (RARS-T), IPSS Lower, starting dose 2 mg

## C/C(=C\C=C\[C@@H](C)c1ccccn1)[C@H]1OC(=O)C[C@H](O)CC[C@@](C)(O)[C@@H](OC(=O)N2CCN(C)CC2)/C=C/[C@@H]1C [Compound 1, (2S,3S,4E,6S,7R,10R)-7,10-dihydroxy-3,7-dimethyl-12-oxo-2-[(2E,4E,6R)-6-(pyridine-2-yl)hepta-2,4-dien-2-yl]oxacyclododec-4-en-6-yl-4-methylpiperazine-1-carboxylate]
[1]; oral, 1.0 mg once daily
  Cmax: 0.835 ng/mL
  half-life: 5.1 h
  AUC(0-t): 4.89 ng·h/mL
  Tmax: 2 h
[1]; oral, 2.0 mg once daily
  Cmax: 1.09 ng/mL
  half-life: 5.4 h
  AUC(0-t): 8.39 ng·h/mL
  Tmax: 2 h
[1]; oral, 3.5 mg once daily
  Cmax: 2.78 ng/mL
  half-life: 5.4 h
  AUC(0-t): 15.6 ng·h/mL
  Tmax: 1.5 h
[1]; oral, 5.0 mg once daily
  Cmax: 3.94 ng/mL
  half-life: 5.8 h
  AUC(0-t): 24.5 ng·h/mL
  Tmax: 1 h
[1]; oral, 7.0 mg once daily
  Cmax: 9.61 ng/mL
  half-life: 5.3 h
  AUC(0-t): 39.4 ng·h/mL
  Tmax: 1 h
[1]; oral, 10 mg once daily
  Cmax: 12.7 ng/mL
  half-life: 5.5 h
  AUC(0-t): 51 ng·h/mL
  Tmax: 1 h
[1]; oral, 12 mg once daily
  Cmax: 12.2 ng/mL
  half-life: 5.4 h
  AUC(0-t): 64.7 ng·h/mL
  Tmax: 2 h
[1]; oral, 14 mg once daily
  Cmax: 25.6 ng/mL
  half-life: 5.1 h
  AUC(0-t): 108 ng·h/mL
  Tmax: 1 h
[1]; oral, 40 mg once daily
  Cmax: 73.3 ng/mL
  half-life: 4.5 h
  AUC(0-t): 265 ng·h/mL
  Tmax: 0.5 h
[1]; 20 mg once daily
  Cmax: 33.6 ng/mL
  half-life: 5.1 h
  AUC(0-t): 142 ng·h/mL
  Tmax: 0.75 h
[1]; 30 mg once daily
  Cmax: 34.4 ng/mL
  half-life: 5.3 h
  AUC(0-t): 159 ng·h/mL
  Tmax: 1.25 h
[1]; preliminary PK analysis
  absorption: rapidly absorbed
  dose dependence of plasma exposure: dose-proportional increase in plasma exposure
[1]; preliminary population PK modeling
  inter-individual variability on clearance/bioavailability: about 34%
[2]
  in vivo antitumor activity: induces in vivo antitumor activity
[3]
  growth inhibitory activity: shows growth inhibitory activity
[4]; 4 patients with SF3B1 mutations and a diagnosis of AML
  RBC TI periods: No RBC TI periods were observed
[4]; 5 of the 7 MDS patients with pre-treatment TMEM14C AJ/CJ >4.01
  patients who experienced events of RBC TI: 71%
[4]; 5 of the 20 patients with missense SF3B1 mutations at study entry
  patients who experienced RBC TI events: 25%
[4]; 9 of 62 patients transfusion dependent at study entry, as of April 2020, all Schedule I
  patients with intervals of >56 days without RBC transfusions: 15%
[4]; CMML (1 subject)
  RBC TI rate: 25%
[4]; MDS (8 cases)
  RBC TI rate: 19%
[4]; all patients
  complete or partial responses meeting 2006 IWG criteria: No complete or partial responses
[4]; human, in vivo
  Median duration of RBC TI: 13 weeks
  Median time to onset of RBC TI: 15 weeks
  additional RBC TI cases, transfusion dependence prior to study entry not verified: Two additional patients (1 AML, 1 MDS) experienced RBC TI periods of >56 days
[4]; in the 4 subjects with CMML
  clinical benefit (platelet response) (MDS/MPN criteria): 1
  complete cytogenetic remission (MDS/MPN criteria): 1
[4]; of the patients with RBC TI
  patients who experienced RBC TI at the 7 mg dose: Four of the 9
  patients whose first RBC TI initiated in weeks 1-24 of the study: 8 of the 9
[4]; one higher risk MDS patient, 7 mg, Schedule II
  platelet transfusion independence without RBC TI: 22 week
[4]; [6]
  Longest RBC TI Period: 66 days
  Number of RBC TI Periods: 1
  Time to First RBC TI: 4 days
[4]; [7]
  Longest RBC TI Period: 87 days
  Number of RBC TI Periods: 1
  Time to First RBC TI: 398 days
[4]; [8]
  Longest RBC TI Period: 121 days
  Number of RBC TI Periods: 1
  Time to First RBC TI: 126 days
[4]; [9]
  Longest RBC TI Period: 107 days
  Number of RBC TI Periods: 1
  Time to First RBC TI: 104 days
[4]; [10]
  Longest RBC TI Period: 98 days
  Number of RBC TI Periods: 4
  Time to First RBC TI: 73 days
[4]; [11]
  Longest RBC TI Period: 85 days
  Number of RBC TI Periods: 5
  Time to First RBC TI: 88 days
[4]; [12]
  Longest RBC TI Period: 98 days
  Number of RBC TI Periods: 2
  Time to First RBC TI: 101 days
[4]; [13]
  Longest RBC TI Period: 56 days
  Number of RBC TI Periods: 1
  Time to First RBC TI: 111 days
[4]; the CMML patient with RBC TI
  period of platelet transfusion independence: 21 week
[5]
  dose-limiting toxicity (DLT): gastrointestinal distress and colitis
